Reference: US7964359B2, “Compositions and methods for the enhancement of soluble amyloid beta oligomer (ADDL) uptake and clearance” (Acumen Pharmaceuticals, Inc., priority 2006, dated 2011)

Columns and labels:
[1] = tested on: cells over-expressing insulin receptor; test: ADDL uptake and clearance by cells over-expressing insulin receptor; format: cell-based
Description: The amount of oligomeric Aβ peptide assemblies present in cell lysates and culture medium is presented.
Total ADDL levels were higher than other treatment conditions. […] In the presence of insulin, ADDLs were internalized and detected in the center of the intracellular compartment. In the presence of AG1024, the majority of ADDLs were retained in the extracellular compartment.

[2] = tested on: cultured cortical neurons; test: ADDL uptake in cultured cortical neurons (western blot of medium, immunoprecipitation of lysates); format: cell-based
Protocol: Primary cortical cultures were prepared from 1-day old pups and maintained in serum-free neurobasal A medium complemented with 2% B-27, […] L-glutamine and 5 μg/mL bFGF. Synthetic oligomeric Aβ peptide assemblies (100 nM) were applied to cultured cortical neurons and incubated at 37° C. for 30 minutes. […] After separation on SDS-PAGE, the precipitated oligomeric Aβ peptide assemblies were detected on western blots with 6E10 antibody. The bar graph (mean±SE) summarizes data from four independent replicated treatments.
(§1) ADDL Uptake and Clearance by Neurons Occurs Via Insulin Receptor Signaling. […] Extracellular ADDL levels were measured on western blots using a concentrated medium. […] On the other hand, the intracellular ADDLs were detected by immunoprecipitation (FIG. 2B). […] This uptake, however, was prevented by […] (FIG. 2B, lane 5, 6).

hippocampal neurons [3] = test: ADDL uptake in hippocampal neurons; format: cell-based
Protocol: as §1

hippocampal neurons [4] = test: MTT cell viability assay after ADDL/insulin treatment; format: cell-based
hippocampal neurons [5] = test: ADDL binding to hippocampal neurons after insulin pre-incubation; format: cell-based; details: for prevention of ADDL binding to hippocampal neurons: then 100 nM ADDLs
Description: This possibility seems unlikely, however, given the abundance of insulin receptors in cell bodies of ADDL-exposed neurons.

insulin receptor [6] = molecular target: T1, insulin receptor (Rattus norvegicus, UniProt P15127); test: Insulin receptor tyrosine phosphorylation in hippocampal neuronal cultures; format: cell-based; parameters: endogenous in cells; host or cells: rat primary hippocampal and cortical neuronal cultures; details: for tyrosine phosphorylation of the insulin receptor: substance alone; for tyrosine phosphorylation of the insulin receptor / insulin-stimulated insulin receptor tyrosine phosphorylation: hippocampal neurons; for insulin-stimulated insulin receptor tyrosine phosphorylation: ADDLs with 100 nM insulin
Protocol: The insulin receptor was immunoprecipitated by an antibody against the β subunit of the insulin receptor. The precipitated proteins were then detected on separate western blots by an anti-phosphotyrosine antibody and an anti-insulin receptor β subunit antibody, respectively. The ratio of phosphorylated and regular receptors was calculated after densitometry scan and compared among different treatments.
(§2) The tyrosine phosphorylation extent of insulin receptor was examined by precipitating insulin receptor with anti-insulin receptor antibody followed by blotting with anti-pTyr antibody on western blots.
(§3) Upon termination of the reaction, the extracellular medium was removed and cell lysates were prepared with a lysis buffer. The tyrosine phosphorylation of insulin receptor was assessed by immunoprecipitation of insulin receptor with a specific anti-insulin receptor antibody, followed by blotting the precipitated receptor with an anti-tyrosine antibody.

insulin receptor [7] = molecular target: T1, insulin receptor; test: Insulin receptor tyrosine phosphorylation in cortical neuronal cultures; format: cell-based; parameters: endogenous in cells; host or cells: rat primary hippocampal and cortical neuronal cultures; details: cortical neurons
Protocol: as §2, §3

insulin receptor [8] = molecular target: T2, insulin receptor (Homo sapiens, UniProt P06213); test: Effect of insulin signaling blockers on insulin-stimulated insulin receptor phosphorylation; format: cell-based
Description: These assays are validated via the use of control compounds such as insulin signaling and receptor antagonists and insulin sensitizers.

insulin receptor [9] = molecular target: T2, insulin receptor; test: ADDL breakdown by cells over expressing human insulin receptor; format: cell-based; parameters: expressed in transfected cells; details: inhibition of insulin receptor
Akt [10] = test: Akt ser473 phosphorylation in cortical neurons; format: cell-based; details: 6 hours
Description: (§4) Equalized total amount of protein from soluble cell lysates were separated on SDS-PAGE, and pAkt ser473 detected on western blots with a specific antibody against pAkt ser473. Identical samples transferred to a separate membrane were detected with an anti-total Akt (rAkt) antibody for internal normalization. The normalized pAkt extent from each experimental condition was converted to percent control and analyzed with one-way ANOVA, **P<0.01.
(§5) In the presence ADDLs, however, there was an increase in pAkt ser473. […] To test whether inhibition of phosphatase 2A (PP2A) causes a similar enhancement of pAkt ser473, the cortical neurons were pre-treated with okadaic acid (OA), a potent PP2A/PP1 inhibitor at a concentration (10 nM) preferentially inhibiting PP2A.

insulin receptor [11] = molecular target: T2, insulin receptor; details: cited from earlier work
IRS1 = IRS1 serine307 phosphorylation in hippocampal neuronal cultures; format: cell-based; details: 150 nM ADDLs, 60 minutes
Description: Equal amount of total proteins from soluble cell lysates from each condition was separated on SDS-PAGE and transferred to nitrocellulose membranes. The phosphorylation extent of IRS1 Ser307 was detected with an anti-IRS1 PSer307 antibody. Identical samples on a separate membrane were blotted with an anti-total amount of IRS1 (rIRS1). The immunoreactivities of pIRS1(Ser307) were normalized with those of rIRS1. Values from each experimental group were converted to percent control and analyzed with one-way ANOVA, ***p<0.0001; **p<0.01.

Akt [12] = test: Akt ser473 phosphorylation in hippocampal neurons; format: cell-based; details: 1 hour post-ADDL/INS treatment
Description: as §4, §5

MAP kinase = test: Insulin-induced MAP kinase phosphorylation; format: cell-based; details: ADDL treatment
Description: Identified herein is a signaling loop in which molecular pathology of AD and type II diabetes can be interconnected.

insulin receptor [13] = molecular target: T2, insulin receptor; test: Ligand blotting of ADDLs to precipitated insulin receptor; format: binding; parameters: expressed in transfected cells; details: 100 nM ADDLs; receptors from cells with and without insulin treatment
Description: The cell lysates were subjected to co-immunoprecipitation, in which a specific anti-ADDL antibody (20C2) was used to precipitated ADDLs and proteins that complexed with ADDLs. This was followed by detection of insulin receptor from precipitated proteins on a western blot. […] To test whether the ADDL-insulin receptor interaction is direct, the human insulin receptors from insulin receptor expressing cells with and without insulin treatment were precipitated with an anti-insulin receptor antibody.

insulin receptor [14] = molecular target: T1, insulin receptor; test: Insulin receptor (IRα) immunofluorescence in mature hippocampal neurons after ADDL treatment; format: cell-based; parameters: endogenous in cells; host or cells: cultures of mature hippocampal neurons; details: 100 nM ADDLs, 30 minutes
Protocol: ADDLs were added to cultures at 100 nM and incubated for 30 minutes to allow for complete binding. […] Insulin receptors, identified using antibodies against the outward-directed alpha sub-unit, also distributed in a punctate manner.
To investigate whether ADDLs cause IR impairment, changes in neuronal IR levels following ADDL treatment were analyzed. […] To detect neuronal surface IR, an antibody recognizing the alpha subunit of IR (IRα) localized on the extracellular membrane layer. Abundant IRα immunoreactivity was detected in cultured hippocampal neurons, which was particularly concentrated on the membrane of soma and dendrites. After treated with 100 nM ADDLs for 30 minutes, however, there was a drastic change in IRα immunostaining pattern with a substantial reduction of IRα from dendrites but an increase in the cell body. […] The increased cytosolic IRα immunoreactivity implicates internalization of the receptor. Loss of IRα occurred specifically to ADDL attacked dendrites. […] Similar to the above experiment, ADDLs were added to cultures at 100 nM and incubated for 30 minutes to allow for complete binding.
The down-regulation of IR is likely due to internalization the receptor by ADDLs.

insulin receptor [15] = molecular target: T1, insulin receptor; test: Serine phosphorylation of insulin receptor in hippocampal neurons; format: cell-based; parameters: endogenous in cells; host or cells: rat primary hippocampal and cortical neuronal cultures; details: 150 nM ADDLs, 60 minutes
Protocol: The cell lysates were subjected to immunoprecipitation using an anti-insulin receptor antibody. The precipitated insulin receptors were analyzed by western blot with an anti-phosphoserine antibody to detect the serine phosphorylation extent of insulin receptor (pSer-IR). The pSer-IR extent was normalized with the total amount of precipitated insulin receptor. Each condition was converted to percent control before analyzed one-way ANOVA, **p<0.01.

[16] = cells pretreated with inhibitor before ADDL and insulin

T1 sequence (P15127 27-759 limits assumed): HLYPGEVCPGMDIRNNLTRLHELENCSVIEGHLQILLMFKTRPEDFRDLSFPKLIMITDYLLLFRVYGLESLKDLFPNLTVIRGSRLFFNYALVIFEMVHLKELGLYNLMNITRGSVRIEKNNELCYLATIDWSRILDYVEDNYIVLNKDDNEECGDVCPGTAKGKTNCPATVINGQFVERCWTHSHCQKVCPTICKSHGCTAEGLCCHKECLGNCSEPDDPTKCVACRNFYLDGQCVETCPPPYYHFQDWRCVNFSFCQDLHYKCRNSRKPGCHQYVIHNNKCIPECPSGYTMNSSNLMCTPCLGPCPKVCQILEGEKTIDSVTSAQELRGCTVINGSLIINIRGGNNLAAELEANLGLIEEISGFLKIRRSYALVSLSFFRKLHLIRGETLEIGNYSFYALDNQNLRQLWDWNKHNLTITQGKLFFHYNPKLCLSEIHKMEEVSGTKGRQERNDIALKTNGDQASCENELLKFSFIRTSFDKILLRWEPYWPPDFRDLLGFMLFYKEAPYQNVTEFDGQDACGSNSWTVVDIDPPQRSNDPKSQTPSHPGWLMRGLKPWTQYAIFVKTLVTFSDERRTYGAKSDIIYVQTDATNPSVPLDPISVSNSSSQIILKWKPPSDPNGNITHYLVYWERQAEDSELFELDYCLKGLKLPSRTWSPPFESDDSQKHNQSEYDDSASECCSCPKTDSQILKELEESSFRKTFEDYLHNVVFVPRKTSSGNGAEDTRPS
T1 sequence (P15127 764-1383 limits assumed): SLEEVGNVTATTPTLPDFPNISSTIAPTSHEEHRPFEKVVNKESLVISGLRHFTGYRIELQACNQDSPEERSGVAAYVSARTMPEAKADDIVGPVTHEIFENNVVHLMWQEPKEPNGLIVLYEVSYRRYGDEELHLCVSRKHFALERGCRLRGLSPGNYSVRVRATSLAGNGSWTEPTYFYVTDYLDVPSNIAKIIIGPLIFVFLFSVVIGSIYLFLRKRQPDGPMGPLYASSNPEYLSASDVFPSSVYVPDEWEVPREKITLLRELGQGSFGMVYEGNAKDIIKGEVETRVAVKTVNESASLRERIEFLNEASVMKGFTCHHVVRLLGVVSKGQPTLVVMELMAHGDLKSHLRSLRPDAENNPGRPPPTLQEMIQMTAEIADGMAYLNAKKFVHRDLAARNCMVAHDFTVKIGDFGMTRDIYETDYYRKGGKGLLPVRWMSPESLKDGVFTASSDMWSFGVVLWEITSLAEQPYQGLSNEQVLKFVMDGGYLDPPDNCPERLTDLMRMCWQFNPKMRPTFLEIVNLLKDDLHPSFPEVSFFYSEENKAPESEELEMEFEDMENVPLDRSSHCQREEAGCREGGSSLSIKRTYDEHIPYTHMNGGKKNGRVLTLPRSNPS

For insulin, the “total amount of ADDLs” value ([1]; 100 nM ADDL with insulin, P<0.01) was “significantly reduced”, the “ADDL uptake (ADDL levels in cell lysates up, extracellular medium down)” value ([1]; 100 nM ADDL, 100 nM insulin) was “stimulated ADDL uptake” and the “ADDL oligomers in the cell lysate fractions” value ([2]; 100 nM ADDLs, immunoprecipitation with 6E10) was “increase of ADDL oligomers”. For the same molecule, the “ADDL uptake into hippocampal neurons” value (hippocampal neurons [3]) was “stimulated a striking ADDL uptake into hippocampal neurons in a clear dose-response manner”, the “aggregated ADDLs in the extracellular medium” value (hippocampal neurons [3]; hippocampal neurons) was “reduced aggregated ADDLs in the extracellular medium in a dose-response manner” and the “cell viability (MTT)” value (hippocampal neurons [4]; ADDLs/insulin for 4 hours) was “no apparent toxic effects”. The “ADDL binding and its effects” value (hippocampal neurons [5]; insulin 1 micromolar, 30 minutes before ADDLs) was “blocked”, the “prevention of ADDL binding to hippocampal neurons” value (hippocampal neurons [5]; pre-incubation with 100 nM insulin) was about 40% and the “prevention of ADDL binding to hippocampal neurons” value (hippocampal neurons [5]; pre-incubation with 1 μM insulin) was about 70%. The “tyrosine phosphorylation of the insulin receptor” value (insulin receptor [6]) was “marked increases in insulin receptor tyrosine phosphorylation”, the “tyrosine phosphorylation of the insulin receptor” value (insulin receptor [6]; listed as Insulin) was “stimulated an increase in tyrosine phosphorylation” and the “insulin receptor tyrosine phosphorylation” value (insulin receptor [7]; 100 nM insulin) was “marked increases in insulin receptor tyrosine phosphorylation”.
With `CC(=O)OCOC(=O)CN(CC(=O)OCOC(C)=O)c1ccccc1OCCOc1ccccc1N(CC(=O)OCOC(C)=O)CC(=O)OCOC(C)=O` [BAPTA-AM, 1,2-bis(o-aminophenoxy)ethane-N,N,N′,N′-tetraacetic acid tetra(acetoxymethyl)ester] the “ADDL inhibition of insulin-stimulated IR tyrosine phosphorylation under chelation of intracellular Ca2+” value (insulin receptor [6]; 100-150 nM ADDLs, neuronal depolarization and glutamate stimulation) was “could be rescued”.
For `O.O=C([O-])c1ccccc1-c1c2cc(I)c(=O)c(I)c-2oc2c(I)c([O-])c(I)cc12.[Na+].[Na+]` [erythrosin B], the “insulin-stimulated insulin receptor phosphorylation” value (insulin receptor [8]) was “significantly inhibited”.
With `CC(C)(C)c1cc(C=C(C#N)C#N)cc(Br)c1O` [AG1024, tyrphostin AG1024] the “ADDL aggregates in the extracellular medium” value [1, 16] was “markedly higher amount of ADDL aggregates in the extracellular medium”, the “insulin-stimulated ADDL internalization” value [1, 16] was “prevented” and the “ADDLs in the extracellular medium” value ([2]; 100 nM synthetic ADDLs, 37° C., 30 minutes) was “striking aggregation of ADDLS”. For the same molecule, the “insulin-induced ADDL uptake into cell lysate” value ([2]; inhibitor included prior to ADDL treatment) was “prevented”, the “insulin-stimulated insulin receptor phosphorylation” value (insulin receptor [8]) was “significantly inhibited” and the “ADDLs in the extracellular medium” value (insulin receptor [9]) was “striking accumulation of ADDLs in the extracellular medium”.
For `C=C1[C@@H](O)[C@@H]2O[C@]3(CC[C@H](/C=C/[C@@H](C)[C@@H]4CC(C)=C[C@@]5(O[C@H](C[C@@](C)(O)C(=O)O)CC[C@H]5O)O4)O3)CC[C@H]2O[C@@H]1[C@@H](O)C[C@H](C)[C@H]1O[C@@]2(CCCCO2)CC[C@H]1C` [okadaic acid], the “duration of insulin-induced increase in pAkt ser473” value (Akt [10]) was “prolonged the insulin-increased pAkt ser473”.
For `CN(C)C(=N)N=C(N)N` [Metformin], the “tyrosine kinase activity of the insulin receptor” value (insulin receptor [11]) is listed as “enhance the tyrosine kinase activity of the insulin receptor”.
For “ADDLs: neurotoxic soluble oligomeric assemblies of Aβ 1-42, prepared from synthetic Aβ 1-42 peptide”, the “neuronal toxicity (MTT cell viability)” value (hippocampal neurons [4]; ADDLs alone, varying treatment duration) was “cause neuronal toxicity in a treatment duration-dependent”, the “IRS-1 serine 307 phosphorylation” value (IRS1) was “increase in serine phosphorylation of IRS-1” and the “insulin-induced pAkt Ser473” value (Akt [12]) was “enhancement of the insulin-induced pAkt Ser473”. For the same molecule, the “duration of insulin-induced increase in pAkt ser473” value (Akt [10]) was “significantly prolonged”, the “insulin-induced MAP kinase phosphorylation” value (MAP kinase) was “significantly inhibited” and the “binding of ADDL to insulin receptor (ligand blot)” value (insulin receptor [13]) was “strong binding of ADDL to insulin receptor was detected only in the activated but not the control insulin receptor”. For the same molecule, the “insulin receptor immunoreactivity in cell bodies vs ADDL-free cells” value (insulin receptor [14]) was about 3 fold, the “dendritic IRα fluorescent intensity” value (insulin receptor [14]; P<0.01) was “significant loss of IRα immunoreactivity” and the “reduction of dendritic insulin receptor immunoreactivity vs ADDL-free cells” value (insulin receptor [14]; image analysis) was about 70%. For the same molecule, the “amount of the insulin receptor” value (insulin receptor [6]; ADDL treatment, hippocampal neuronal cultures) was “reduction in the amount of the insulin receptor”, the “insulin-stimulated insulin receptor tyrosine phosphorylation” value (insulin receptor [6]) was “significantly inhibited” and the “insulin-stimulated insulin receptor tyrosine phosphorylation” value (insulin receptor [6]; listed as ADDL) was “abolished”. For the same molecule, the “insulin-stimulated insulin receptor tyrosine phosphorylation” value (insulin receptor [6]; listed as soluble oligomeric Aβ peptide assemblies) was “significant inhibition”, the “tyrosine phosphorylation of the insulin receptor” value (insulin receptor [6]) was “increase in tyrosine phosphorylation of the insulin receptor” and the “insulin-induced insulin receptor tyrosine phosphorylation” value (insulin receptor [7]; ADDLs 50-150 nM with 100 nM insulin) was “significantly inhibited”. The “serine phosphorylation of insulin receptor (pSer-IR)” value (insulin receptor [15]) was “increase in serine phosphorylation of insulin receptor”.
